pIC50: −log10 of the molar value. Calls of active or inactive are those of the source. The calls are words filed in the database; no cut-off is given here.

For 9 compounds, IC50, Activity and DC50 results are on record in ChEMBL document CHEMBL6134889, “ByeTAC: Bypassing E-Ligase-Targeting Chimeras for Direct Proteasome Degradation” (J Med Chem, 2025).

The subject of one assay is Ramos. The experiment in a line: Antiproliferative activity against human Ramos cells assessed as reduction in cell viability incubated for 48 hrs. Type of assay: functional, cell-based.
Assay [1] has as its target T1, Proteasomal ubiquitin receptor ADRM1/Bromodomain-containing protein 4 (Homo sapiens, UniProt O60885+Q16186). The experiment in a line: Induction of BRD4 degradation in human Ramos cells at 10 to 1000 nM incubated for 18 hrs by Western blot analysis. Type of assay: cell-based. To be noted: dose 10-1000 nM. Background: Immunoblotting shows a protein as a band on a membrane.

The target of assay [2] is Proteasomal ubiquitin receptor ADRM1/Glycogen synthase kinase-3 beta (Homo sapiens) (UniProt P49841+Q16186). The experiment in a line: Halo-BYETAC activity at 26S proteasome subunit Rpn13/Halo-tagged GSK3beta (unknown origin) transfected in human U87 cells assessed as induction of Halo-tagged GSK3beta degradation at 1 to 10 uM incubated for 18 hrs by Western blot analysis. Type of assay: cell-based. To be noted: dose 1-10 µM.

In assay [3] the target is T1, Proteasomal ubiquitin receptor ADRM1/Bromodomain-containing protein 4. The experiment in a line: BYETAC activity at 26S proteasome subunit Rpn13/BRD4 in human Ramos cells assessed as induction of BRD4 degradation by measuring remaining activity at 10 nM incubated for 18 hrs by Western blot analysis (reference value: 100 %). Type of assay: cell-based.
Assay [4] shares this target. The assay can be described thus: BYETAC activity at 26S proteasome subunit Rpn13/BRD4 in human Ramos cells assessed as induction of BRD4 degradation by measuring remaining activity at 100 nM incubated for 18 hrs by Western blot analysis (reference value: 100 %). Type of assay: cell-based.
Assay [5] shares this target. The experiment in a line: BYETAC activity at 26S proteasome subunit Rpn13/BRD4 in human Ramos cells assessed as induction of BRD4 degradation by measuring remaining activity at 500 nM incubated for 18 hrs by Western blot analysis (reference value: 100 %). Type of assay: cell-based.
Assay [6] shares this target. The experiment in a line: BYETAC activity at 26S proteasome subunit Rpn13/BRD4 in human U87 cells assessed as induction of BRD4 degradation by measuring remaining activity at 10 nM incubated for 18 hrs by Western blot analysis (reference value: 100 %). Type of assay: cell-based.
Assay [7] has the same target. The experiment in a line: BYETAC activity at 26S proteasome subunit Rpn13/BRD4 in human U87 cells assessed as induction of BRD4 degradation by measuring remaining activity at 100 nM incubated for 18 hrs by Western blot analysis (reference value: 100 %). Type of assay: cell-based.
Assay [8] shares this target. The experiment in a line: BYETAC activity at 26S proteasome subunit Rpn13/BRD4 in human U87 cells assessed as induction of BRD4 degradation by measuring remaining activity at 500 nM incubated for 18 hrs by Western blot analysis (reference value: 100 %). Type of assay: cell-based.
Assay [9] shares this target. The assay can be described thus: BYETAC activity at 26S proteasome subunit Rpn13/BRD4 in human Raji cells assessed as induction of BRD4 degradation by measuring remaining activity at 10 nM incubated for 18 hrs by Western blot analysis (reference value: 100 %). Type of assay: cell-based.
For assay [10] the target is unchanged. The assay can be described thus: BYETAC activity at 26S proteasome subunit Rpn13/BRD4 in human Raji cells assessed as induction of BRD4 degradation by measuring remaining activity at 100 nM incubated for 18 hrs by Western blot analysis (reference value: 100 %). Type of assay: cell-based.
Assay [11] has the same target. The experiment in a line: BYETAC activity at 26S proteasome subunit Rpn13/BRD4 in human Raji cells assessed as induction of BRD4 degradation by measuring remaining activity at 500 nM incubated for 18 hrs by Western blot analysis (reference value: 100 %). Type of assay: cell-based.
For assay [12] the target is unchanged. The assay can be described thus: BYETAC activity at 26S proteasome subunit Rpn13/BRD4 in human Ramos cells assessed as induction of BRD4 degradation incubated for 18 hrs by Western blot analysis. Type of assay: cell-based.
The target of assay [13] is T2, Proteasomal ubiquitin receptor ADRM1/Tyrosine-protein kinase BTK (Homo sapiens) (UniProt Q06187+Q16186). The assay can be described thus: BYETAC activity at 26S proteasome subunit Rpn13/BTK in human Ramos cells assessed as induction of BTK degradation by measuring remaining activity at 0.5 uM incubated for 18 hrs by Western blot analysis (reference value: 100 %). Type of assay: cell-based.

Assay [14] deals with T2, Proteasomal ubiquitin receptor ADRM1/Tyrosine-protein kinase BTK (Homo sapiens). The assay can be described thus: BYETAC activity at 26S proteasome subunit Rpn13/BTK in human Ramos cells assessed as induction of BTK degradation by measuring remaining activity at 1 uM incubated for 18 hrs by Western blot analysis (reference value: 100 %). Type of assay: cell-based.
Assay [15] shares this target. The assay can be described thus: BYETAC activity at 26S proteasome subunit Rpn13/BTK in human Ramos cells assessed as induction of BTK degradation by measuring remaining activity at 10 uM incubated for 18 hrs by Western blot analysis (reference value: 100 %). Type of assay: cell-based.
The target is the same in assay [16]. The experiment in a line: BYETAC activity at 26S proteasome subunit Rpn13/BTK in human Ramos cells assessed as induction of BTK degradation by measuring remaining activity at 25 uM incubated for 18 hrs by Western blot analysis (reference value: 100 %). Type of assay: cell-based.
Assay [17] shares this target. The experiment in a line: BYETAC activity at 26S proteasome subunit Rpn13/BTK in human Ramos cells assessed as induction of BTK degradation at 1 to 25 uM incubated for 18 hrs by Western blot analysis. Type of assay: cell-based. To be noted: dose 1-25 µM.
Assay [18] concerns the target T1, Proteasomal ubiquitin receptor ADRM1/Bromodomain-containing protein 4. The assay can be described thus: Induction of BRD4 degradation in human U87 cells transfected with Rpn-13 siRNA at 100 nM incubated for 18 hrs by Western blot analysis. Type of assay: cell-based.
Assay [19] shares this target. The assay can be described thus: BYETAC activity at 26S proteasome subunit Rpn13/BRD4 in human Ramos cells assessed as induction of BRD4 degradation by measuring remaining activity at 100 nM incubated for 18 hrs in presence of TAK-243 by Western blot analysis relative to control. Type of assay: cell-based.
Assay [20] shares this target. The experiment in a line: BYETAC activity at 26S proteasome subunit Rpn13/BRD4 in human Ramos cells assessed as induction of BRD4 degradation at 100 nM incubated for 18 hrs in presence of MG132 by Western blot analysis. Type of assay: cell-based.
Assay [21] has the same target. The assay can be described thus: BYETAC activity at 26S proteasome subunit Rpn13/BRD4 in human U87 cells assessed as induction of BRD4 degradation at 500 nM measured up to 72 hrs by Western blot analysis. Type of assay: cell-based.
Assay [22] deals with Proteasomal ubiquitin receptor ADRM1/Bromodomain-containing protein 2 (Homo sapiens) (UniProt P25440+Q16186). The experiment in a line: BYETAC activity at 26S proteasome subunit Rpn13/BRD2 in human Ramos cells assessed as induction of BRD2 degradation at 100 nM incubated for 18 hrs by Western blot analysis. Type of assay: cell-based.
Assay [23] concerns the target Proteasomal ubiquitin receptor ADRM1/Bromodomain-containing protein 3 (Homo sapiens) (UniProt Q15059+Q16186). The assay can be described thus: BYETAC activity at 26S proteasome subunit Rpn13/BRD3 in human Ramos cells assessed as induction of BRD3 degradation at 100 nM incubated for 18 hrs by Western blot analysis. Type of assay: cell-based.
Assay [24] deals with T1, Proteasomal ubiquitin receptor ADRM1/Bromodomain-containing protein 4. The assay can be described thus: BYETAC activity at 26S proteasome subunit Rpn13/BRD4 in human Ramos cells assessed as induction of BRD4 degradation at 500 nM preincubated with TCL1 for 1 hrs followed by compound addition and measured after 18 hrs by competitive Western blot analysis. Type of assay: cell-based.

The target is the same in assay [25]. The experiment in a line: BYETAC activity at 26S proteasome subunit Rpn13/BRD4 in human Ramos cells assessed as induction of BRD4 degradation at 500 nM preincubated with JQ1 for 1 hrs followed by compound addition and measured after 18 hrs by competitive Western blot analysis. Type of assay: cell-based.
The target is the same in assay [26]. The assay can be described thus: Binding affinity to 26S proteasome subunit Rpn13/BRD4 in human Ramos cells assessed as ternary complex formation at 5 uM incubated for 3 hrs by co-immunoprecipitation analysis. Type of assay: cell-based.
Assay [27] addresses Proteasomal ubiquitin receptor ADRM1 (Homo sapiens) (UniProt Q16186). The assay can be described thus: Induction of Rpn-13 stabilization in human Ramos cells assessed as increase in Rpn-13 level at 5 uM incubated for 3 hrs by co-immunoprecipitation analysis. Type of assay: cell-based.

As usually defined, the pIC50 is the IC50 on a negative log10 scale, so that one unit is a factor of ten. Regarding `Cc1sc2c(c1C)C(c1ccc(Cl)cc1)=N[C@@H](CC(=O)Nc1ccc(OCCOCCOCCOCCNc3cccc4c3C(=O)N(C3CCC(=O)NC3=O)C4=O)cc1)c1nnc(C)n1-2` (stereo not given in full), in the assay with Ramos, the pIC50 is 8.72.
Turning to `O=C(O)CC1Sc2nnc(Cc3ccc(Br)cc3)n2N=C1c1ccc(Cl)cc1` (stereo not given), the outcome in assay [1] was inactive.
For `ClCCCCCCNCCOCCOCCNCC1Sc2nnc(Cc3ccc(Br)cc3)n2N=C1c1ccc(Cl)cc1` (stereo not given), the outcome in [2] was Active.
For orientation: DC50 means the concentration at which degradation of the target reaches its halfway point. Regarding `Cc1sc2c(c1C)C(c1ccc(Cl)cc1)=N[C@@H](CC(=O)NCCOCCOCCOCCNC(=O)CC1Sc3nnc(Cc4ccc(Br)cc4)n3N=C1c1ccc(Cl)cc1)c1nnc(C)n1-2` (stereo not given in full), the Activity came to 111% in [3]; 69% in [4]; 35% in assay [5]; 83% in assay [6]; 53% in [7]; 36% in assay [8]. For the same compound, the Activity in [9] stood at 78%; in assay [10], 77%; in assay [11], 68%. In assay [12], the DC50 was around 500 nM.
Turning to `Cc1sc2c(c1C)C(c1ccc(Cl)cc1)=N[C@@H](CC(=O)NCCOCCOCCOCCOCCOCCNC(=O)CC1Sc3nnc(Cc4ccc(Br)cc4)n3N=C1c1ccc(Cl)cc1)c1nnc(C)n1-2` (stereo not given in full), the Activity in assay [3] came out at 92%; in assay [4] it was 87%; in assay [5] it was 60%.
As to `Nc1ncnc2c1c(-c1ccc(Oc3ccccc3)cc1)nn2[C@H]1CCCN(C(=O)CCC(=O)NCCOCCOCCOCCOCCOCCOCCOCCOCCNC(=O)CC2Sc3nnc(Cc4ccc(Br)cc4)n3N=C2c2ccc(Cl)cc2)C1` (stereo not given in full), the Activity worked out at 97% in assay [13], 72% in [14], 3% in [15] and 6% in [16].
Turning to `Nc1ncnc2c1c(-c1ccc(Oc3ccccc3)cc1)nn2[C@H]1CCCN(C(=O)COCCOCCOCCOCCNC(=O)CC2Sc3nnc(Cc4ccc(Br)cc4)n3N=C2c2ccc(Cl)cc2)C1` (stereo not given in full), the outcome in assay [17] was inactive.
As for `Cc1sc2c(c1C)C(c1ccc(Cl)cc1)=N[C@@H](CC(=O)NCCOCCOCCOCCOCCOCCOCCOCCNC(=O)CC1Sc3nnc(Cc4ccc(Br)cc4)n3N=C1c1ccc(Cl)cc1)c1nnc(C)n1-2` (stereo not given in full), the figures for the Activity in assay [3], in [4] and in [5] were 107%, 100% and 80%, respectively.
For the compound `Cc1sc2c(c1C)C(c1ccc(Cl)cc1)=N[C@@H](CC(=O)NCCOCCOCCOCCOCCNC(=O)CC1Sc3nnc(Cc4ccc(Br)cc4)n3N=C1c1ccc(Cl)cc1)c1nnc(C)n1-2` (stereo not given in full), the Activity is 91% in [3]; 55% in assay [4]; 33% in [5]; 66% in [6]; 36% in [7]; 20% in assay [8]. The Activity stood at 95% in assay [9], 72% in assay [10], 62% in [11] and 40% in assay [19]. In the assay on Ramos, the pIC50 was 7.52. The DC50 in [12] was around 500 nM. The result in assay [18], in assay [20], in assay [24] and in assay [25] was inactive. Further, the outcome in [21], in [22], in [23], in [26] and in assay [27] was Active.
